The record followed here is US20060069038A1, “Irreversible caspase-3 inhibitors as active site probes” (priority 2003, published 2006).

As a reminder, the IC50 is the concentration needed to halve the response being measured.

Assay [1] has as its system spectrin cleavage. Briefly: Spectrin cleavage in cultured thymocytes. Type of assay: cell-based. Conditions: Rattus norvegicus, Thymocyte, N. Methot et al., in press, read-out: IC50, inhibition of spectrin cleavage.
The target in assay [2] is T1, caspase-3 (Rattus norvegicus, UniProt P55213).
T1 construct: endogenous in cells; host or cells: primary rat thymocytes (Sprague-Dawley), spontaneous apoptosis in culture
T1 sequence (P55213 29-175 limits assumed): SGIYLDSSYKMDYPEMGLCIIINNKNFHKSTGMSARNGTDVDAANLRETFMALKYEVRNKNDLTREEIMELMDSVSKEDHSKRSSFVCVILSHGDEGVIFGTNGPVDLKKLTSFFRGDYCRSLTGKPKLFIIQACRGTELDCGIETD
T1 sequence (P55213 176-277 limits assumed): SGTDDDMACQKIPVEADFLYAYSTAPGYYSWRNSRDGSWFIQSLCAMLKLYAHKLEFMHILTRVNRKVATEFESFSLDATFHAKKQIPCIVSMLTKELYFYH
Briefly: Caspase active site occupancy by [125I]-M808 labeling in whole rat thymocytes. It counts as cell-based. As for the experimental part: FIG. 5. Determination of caspase active site occupancy by M867 in cultured rat thymocytes. A-Theoretical calculations for the determination of the percentage of caspase-3 active sites occupied by M867 in whole cells. The total amount of caspase-3 p17 subunit is determined densitometrically by either Western blotting of saturation [^125I]-M808 labeling. Partial labeling of active caspases in whole cells is perforemd (see materials and methods). A graph of the p17 amount against partial [^125I]-M808 labeling signal in the absence of M867 (or other reversible caspase inhibitors) is plotted. The [^125I]-M808 signal expected from the measured p17 amount is estimated form this plot. The actual [^125I]-M808 signal (by partial labeling) in the presence of reversible inhibitor is measured. The ratio of actual [^125I]-M808 signal over expected [^125I]-M808 signal multiplied by 100=the percentage of caspase active sites unoccupied by an inhibitor. The percentage occupancy=100−% free active sites. B-C An actual determination of caspase active site occupancy by M867 in whole rat thymocytes. B-caspase-3 western blot. C-[^125I]-M808 signal from whole rat thymocytes exposed to increasing concentrations of M867. Comparison of M867 caspase inhibition potency (IC50) determined by DNA fragmentation inhibition and [^125I]-M808 labeling is also depicted. […]

Read-outs that look alike come from different tables or passages of the source.

For `CCCCCN(C)CC(=O)[C@H](CC(=O)O)NC(=O)[C@H](CC)n1cc(C(C)(C)C)nc(NCc2nonc2C)c1=O` [Example M867, (3S)-3-({(2S)-2-[5-tert-butyl-3-{[(4-methyl-1,2,5-oxadiazol-3-yl)methyl]amino}-2-oxopyrazin-1(2H)-yl]butanoyl}amino)-5-[methyl(pentyl)amino]-4-oxopentanoic acid], the half-maximal inhibitory concentration (IC50) in assay [1] is 90 nM; in assay [2] (five independent experiments, p=0.03 vs DNA fragmentation IC50, read-out: IC50 determined with M808), 130 nM; in assay [2] (whole rat thymocytes, experiment of FIG. 5, read-out: IC50, occupancy of caspase by M867 ([125I]-M808 labeling)), 140 nM.
